Data as given in ChEMBL document CHEMBL4020738, “Antioxidant and anticholinesterase potential of diterpenoid alkaloids from Aconitum heterophyllum” (Bioorg Med Chem, 2017).

Experiments:
[1] = Antioxidant activity assessed as inhibition of DPPH free radical at 125 uM after 30 mins relative to control; type: functional
[2] = Antioxidant activity assessed as inhibition of DPPH free radical at 75 uM after 30 mins relative to control; type: functional
[3] = target: Cholinesterase (Equus caballus) (UniProt P81908); test: Inhibition of horse serum BChE at 0.1 mM using butyrylcholine chloride as substrate preincubated for 15 mins followed by substrate addition by spectrophotometric method relative to control
Chain of Cholinesterase (Equus caballus) (P81908 whole entry): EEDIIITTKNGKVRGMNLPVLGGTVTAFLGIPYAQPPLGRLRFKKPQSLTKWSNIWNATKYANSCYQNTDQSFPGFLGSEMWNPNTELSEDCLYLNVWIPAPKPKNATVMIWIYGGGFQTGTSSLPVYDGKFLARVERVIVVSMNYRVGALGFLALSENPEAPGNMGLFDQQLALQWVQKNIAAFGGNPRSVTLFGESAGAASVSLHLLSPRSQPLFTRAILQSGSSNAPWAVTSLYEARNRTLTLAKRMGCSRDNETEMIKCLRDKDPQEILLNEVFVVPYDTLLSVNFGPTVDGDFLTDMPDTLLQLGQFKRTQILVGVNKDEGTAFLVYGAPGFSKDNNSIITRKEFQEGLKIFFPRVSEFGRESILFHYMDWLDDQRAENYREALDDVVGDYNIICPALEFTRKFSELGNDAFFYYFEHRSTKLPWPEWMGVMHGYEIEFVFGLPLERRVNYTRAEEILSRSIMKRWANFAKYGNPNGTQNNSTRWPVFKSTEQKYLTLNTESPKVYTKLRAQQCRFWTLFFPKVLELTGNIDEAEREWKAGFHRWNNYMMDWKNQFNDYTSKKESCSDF

[4] = target: Acetylcholinesterase (Electrophorus electricus) (UniProt O42275); test: Inhibition of electric eel AChE at 0.1 mM using acetylthiocholine iodide as substrate preincubated for 15 mins followed by substrate addition by spectrophotometric method relative to control
Chain of Acetylcholinesterase (Electrophorus electricus) (O42275 24-633 limits assumed): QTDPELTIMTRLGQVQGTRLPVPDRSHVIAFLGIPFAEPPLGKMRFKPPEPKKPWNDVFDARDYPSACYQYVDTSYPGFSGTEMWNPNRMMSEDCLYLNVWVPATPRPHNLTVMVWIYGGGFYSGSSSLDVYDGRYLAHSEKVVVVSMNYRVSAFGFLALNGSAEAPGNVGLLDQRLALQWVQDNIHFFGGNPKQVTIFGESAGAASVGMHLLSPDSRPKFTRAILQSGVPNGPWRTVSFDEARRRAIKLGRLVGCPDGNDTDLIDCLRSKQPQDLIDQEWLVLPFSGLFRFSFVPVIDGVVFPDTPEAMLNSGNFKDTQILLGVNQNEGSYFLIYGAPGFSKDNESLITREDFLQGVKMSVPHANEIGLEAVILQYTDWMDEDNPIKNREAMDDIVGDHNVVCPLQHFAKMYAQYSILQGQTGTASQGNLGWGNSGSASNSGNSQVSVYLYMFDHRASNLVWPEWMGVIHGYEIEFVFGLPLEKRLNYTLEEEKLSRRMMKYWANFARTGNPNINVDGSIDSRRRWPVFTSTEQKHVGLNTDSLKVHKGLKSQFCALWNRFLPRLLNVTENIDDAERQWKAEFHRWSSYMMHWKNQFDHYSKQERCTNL

[5] = target: Cholinesterase (Equus caballus, UniProt P81908); test: Inhibition of horse serum BChE using butyrylcholine chloride as substrate preincubated for 15 mins followed by substrate addition by spectrophotometric method
Chain of Cholinesterase (P81908 whole entry): as the sequence (P81908 whole entry) above

[6] = Antioxidant activity assessed as inhibition of DPPH free radical after 30 mins; type: functional
[7] = Antioxidant activity assessed as inhibition of DPPH free radical at 50 uM after 30 mins relative to control; type: functional
[8] = target: Acetylcholinesterase (Electrophorus electricus, UniProt O42275); test: Inhibition of electric eel AChE using acetylthiocholine iodide as substrate preincubated for 15 mins followed by substrate addition by spectrophotometric method
Chain of Acetylcholinesterase (O42275 whole entry): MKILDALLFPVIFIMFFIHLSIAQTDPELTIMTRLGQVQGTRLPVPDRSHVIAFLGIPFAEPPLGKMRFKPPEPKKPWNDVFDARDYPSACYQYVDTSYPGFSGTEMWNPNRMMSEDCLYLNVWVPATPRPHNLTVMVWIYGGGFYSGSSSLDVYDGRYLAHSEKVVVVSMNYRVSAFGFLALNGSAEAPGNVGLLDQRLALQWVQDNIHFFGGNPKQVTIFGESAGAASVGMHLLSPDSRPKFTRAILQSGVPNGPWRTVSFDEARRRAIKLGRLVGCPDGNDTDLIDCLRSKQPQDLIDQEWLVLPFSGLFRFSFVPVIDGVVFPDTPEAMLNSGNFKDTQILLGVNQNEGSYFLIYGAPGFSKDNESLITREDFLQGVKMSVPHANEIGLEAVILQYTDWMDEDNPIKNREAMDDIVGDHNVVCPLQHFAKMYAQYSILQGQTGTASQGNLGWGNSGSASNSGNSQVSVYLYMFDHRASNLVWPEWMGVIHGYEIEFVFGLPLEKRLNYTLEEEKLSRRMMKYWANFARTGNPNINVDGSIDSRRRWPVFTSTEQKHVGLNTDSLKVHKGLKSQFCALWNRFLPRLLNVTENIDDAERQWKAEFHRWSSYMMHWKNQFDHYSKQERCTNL

[9] = Antioxidant activity assessed as inhibition of DPPH free radical at 100 uM after 30 mins relative to control; type: functional

Molecule `C=C1C[C@]23C[C@@H]4[C@@H]5[C@@]6(C)CC(=O)C[C@]57C([C@@H]2[C@@H](O)[C@H]1[C@@H](O)[C@@H]37)N4C6` has an inhibition [1] of 65.5%, an inhibition [2] of 32% and an inhibition [3] greater than 50%. The inhibition [4] was greater than 50%, the IC50 [5] was 15.6 µM and the inhibition [6] was “Dose-dependent effect”. It also gave an inhibition [7] of 12.1%, an IC50 [8] of 10.1 µM and an inhibition [9] of 40%.

`C=C1[C@H]2CC[C@@]3(CC[C@H]4[C@]5(CCC[C@]4(C)C4OCCN4C5)[C@@H]3C2)[C@@H]1O` (stereo partly specified) gave an inhibition [1] of 60%, an inhibition [2] of 23.3% and an inhibition [3] greater than 50%. The inhibition [4] was greater than 50%, the IC50 [5] was 13.1 µM and the inhibition [6] was “Dose-dependent effect”. The inhibition [7] was 11.8%, the IC50 [8] was 8.4 µM and the inhibition [9] was 49.4%.

Work on `CCN1C[C@]2(C)CC[C@H](OC)[C@]34C1[C@H]([C@@H](O)[C@H]23)[C@@]1(O)CC[C@H]2C[C@@H]4[C@@H]1C(=O)O2` yielded an inhibition [1] of 52.4%, an inhibition [2] of 39.3% and an inhibition [3] greater than 50%. The inhibition [4] was greater than 50%, the IC50 [5] was 10.4 µM and the inhibition [6] was “Dose-dependent effect”. For the same molecule, the inhibition [7] was 19.3%, the IC50 [8] was 6.5 µM and the inhibition [9] was 47.3%.

Work on `C=C1[C@H]2C[C@H]3C4N5C[C@]6(C)CCC[C@@]47[C@@H]6[C@@]5(O)CC3([C@@H]1O)[C@@H]7C2` yielded an inhibition [1] of 41.2%, an inhibition [2] of 25% and an inhibition [3] greater than 50%. The inhibition [4] was greater than 50%, the IC50 [5] was 16.2 µM and the inhibition [6] was “Dose-dependent effect”. It also gave an inhibition [7] of 17%, an IC50 [8] of 12.8 µM and an inhibition [9] of 36%.

`C=C1[C@H]2CC[C@@]3(CC[C@@H]4[C@]5(C)CCC[C@]4(CN4CCO[C@@H]45)[C@@H]3C2)[C@@H]1O` showed an inhibition [1] of 55.2%, an inhibition [2] of 30.1% and an inhibition [3] greater than 50%. For the same molecule, the inhibition [4] was greater than 50%, the IC50 [5] was 14.7 µM and the inhibition [6] was “Dose-dependent effect”. The inhibition [7] was 12.3%, the IC50 [8] was 10.3 µM and the inhibition [9] was 42.1%.

With `O=C1O[C@H]([C@@H](O)CO)C(O)=C1O` the inhibition [1] was 96%, the inhibition [2] was 85% and the inhibition [7] was 75%. The inhibition [9] was 90%.

For `C=C1[C@H]2CC[C@@]3(C(=O)C[C@@H]4[C@@]5(C)CCC[C@@]4(CN(CCO)C5)[C@@H]3C2)[C@@H]1O`, the inhibition [1] was 45%, the inhibition [2] was 31.2% and the inhibition [3] was greater than 50%. The inhibition [4] was greater than 50%, the IC50 [5] was 18.1 µM and the inhibition [6] was “Dose-dependent effect”. The inhibition [7] was 20%, the IC50 [8] was 14.6 µM and the inhibition [9] was 40%.

Molecule `CCN1C[C@]2(C)CC[C@H](OC)[C@]34C1[C@@](C)([C@@H](OC)[C@H]23)[C@@]1(O)CC[C@H]2C[C@@H]4C1(O)C(=O)O2` has an inhibition [1] of 38.4%, an inhibition [2] of 28.3% and an inhibition [3] greater than 50%. The inhibition [4] was greater than 50%, the IC50 [5] was 8.6 µM and the inhibition [6] was “Dose-dependent effect”. It also gave an inhibition [7] of 22.2%, an IC50 [8] of 5.4 µM and an inhibition [9] of 33.2%.

`C=C1CC23C[C@H]4[C@@H]5[C@@]6(C)CC[C@H](O)[C@]57C([C@@H]2[C@@H](O)[C@H]1[C@@H](O)[C@@H]37)N4C6` gave an inhibition [1] of 79.6%, an inhibition [2] of 27% and an inhibition [3] greater than 50%. For the same molecule, the inhibition [4] was greater than 50%, the IC50 [5] was 9.3 µM and the inhibition [6] was “Dose-dependent effect”. It also gave an inhibition [7] of 22.5%, an IC50 [8] of 6.5 µM and an inhibition [9] of 60.3%.
